In brackets after ≈: the same amount, converted by molar mass.
Legend:
Format in all cases: functional
[1] = system: Candida albicans; experiment: Antifungal activity against Candida albicans SC5314 assessed as inhibition of fungal growth incubated for 24 hrs by CLSI protocol based microbroth dilution method
[2] = system: Candida parapsilosis; experiment: Antifungal activity against Candida parapsilosis 22019 assessed as inhibition of fungal growth incubated for 24 hrs by CLSI protocol based microbroth dilution method; details: Lodderomyces parapsilosis
[3] = system: Candida tropicalis; experiment: Antifungal activity against Candida tropicalis 2718 assessed as inhibition of fungal growth incubated for 24 hrs by CLSI protocol based microbroth dilution method
[4] = system: Pichia kudriavzevii; experiment: Antifungal activity against Candida krusei 4946 assessed as inhibition of fungal growth incubated for 24 hrs by CLSI protocol based microbroth dilution method
[5] = system: Nakaseomyces glabratus; experiment: Antifungal activity against Candida glabrata 537 assessed as inhibition of fungal growth incubated for 48 hrs by CLSI protocol based microbroth dilution method
[6] = system: Cryptococcus neoformans; experiment: Antifungal activity against Cryptococcus neoformans H99 assessed as inhibition of fungal growth incubated for 72 hrs by CLSI protocol based microbroth dilution method
[7] = system: Aspergillus fumigatus; experiment: Antifungal activity against Aspergillus fumigatus 7544 assessed as inhibition of fungal growth incubated for 48 hrs by CLSI protocol based microbroth dilution method
[8] = system: [Candida] auris; experiment: Antifungal activity against fluconazole resistant Candida auris 887 assessed as inhibition of fungal growth incubated for 48 hrs by CLSI protocol based microbroth dilution method; details: Candidozyma auris
[9] = system: [Candida] auris; experiment: Antifungal activity against fluconazole resistant Candida auris 888 assessed as inhibition of fungal growth incubated for 48 hrs by CLSI protocol based microbroth dilution method; details: Candidozyma auris
[10] = system: [Candida] auris; experiment: Antifungal activity against fluconazole resistant Candida auris D12 assessed as inhibition of fungal growth incubated for 48 hrs by CLSI protocol based microbroth dilution method; details: Candidozyma auris
[11] = system: [Candida] auris; experiment: Antifungal activity against fluconazole resistant Candida auris BS12372 assessed as inhibition of fungal growth incubated for 48 hrs by CLSI protocol based microbroth dilution method; details: Candidozyma auris
[12] = system: [Candida] auris; experiment: Antifungal activity against fluconazole resistant Candida auris 789 assessed as inhibition of fungal growth incubated for 48 hrs by CLSI protocol based microbroth dilution method; details: Candidozyma auris
[13] = system: [Candida] auris; experiment: Antifungal activity against fluconazole resistant Candida auris 791 assessed as inhibition of fungal growth incubated for 48 hrs by CLSI protocol based microbroth dilution method; details: Candidozyma auris

Row | SMILES | MIC50 [1] [µg/mL] | MIC50 [2] [µg/mL] | MIC50 [3] [µg/mL] | MIC50 [4] [µg/mL] | MIC50 [5] [µg/mL] | MIC50 [6] [µg/mL] | MIC50 [7] [µg/mL] | MIC50 [8] [µg/mL] | MIC50 [9] [µg/mL] | MIC50 [10] [µg/mL] | MIC50 [11] [µg/mL] | MIC50 [12] [µg/mL] | MIC50 [13] [µg/mL]
1 | COc1ccc2c(=O)n([C@H](C)[C@](O)(Cn3cncn3)c3ccc(F)cc3F)ccc2c1 | < 0.008 | < 0.008 | < 0.008 | 0.125 (≈ 0.293 µM) | < 0.008 | < 0.008 | 1 (≈ 2.35 µM) |  |  |  |  |  | 
2 | C[C@@H](n1ncc2cn(-c3ccc(C#N)cc3)nc2c1=O)[C@](O)(Cn1cncn1)c1ccc(F)cc1F | 0.5 (≈ 1.02 µM) | 1 (≈ 2.05 µM) | 1 (≈ 2.05 µM) | > 64 | 0.5 (≈ 1.02 µM) | 8 (≈ 16.4 µM) | > 64 |  |  |  |  |  | 
3 | C[C@@H](n1ncc2cn(-c3ccc(F)cc3)nc2c1=O)[C@](O)(Cn1cncn1)c1ccc(F)cc1F | 0.25 (≈ 0.519 µM) | 2 (≈ 4.15 µM) | 1 (≈ 2.08 µM) | 8 (≈ 16.6 µM) | 4 (≈ 8.31 µM) | 2 (≈ 4.15 µM) | > 64 |  |  |  |  |  | 
4 | C[C@@H](n1ccc2cc(F)ccc2c1=O)[C@](O)(Cn1cnnn1)c1ccc(F)cc1F | < 0.008 | 0.063 (≈ 0.152 µM) | < 0.008 | 1 (≈ 2.41 µM) | 0.063 (≈ 0.152 µM) | 0.016 (≈ 0.0385 µM) | 4 (≈ 9.63 µM) |  |  |  |  |  | 
5 | C[C@@H](n1ccc2cc(Br)ccc2c1=O)[C@](O)(Cn1cncn1)c1ccc(F)cc1F | < 0.008 | < 0.008 | < 0.008 | 0.063 (≈ 0.133 µM) | < 0.008 | < 0.008 | 1 (≈ 2.1 µM) |  |  |  |  |  | 
6 | C[C@@H](n1cnc2cc(Cl)ccc2c1=O)[C@](O)(Cn1cnnn1)c1ccc(F)cc1F | < 0.008 | 0.063 (≈ 0.146 µM) | < 0.008 | 0.25 (≈ 0.578 µM) | 0.031 (≈ 0.0716 µM) | 2 (≈ 4.62 µM) | 8 (≈ 18.5 µM) | 32 (≈ 73.9 µM) | 16 (≈ 37 µM) | 8 (≈ 18.5 µM) | 8 (≈ 18.5 µM) | 16 (≈ 37 µM) | 32 (≈ 73.9 µM)
7 | C[C@@H](n1ncc2cn(-c3ccc(F)c(Cl)c3)nc2c1=O)[C@](O)(Cn1cncn1)c1ccc(F)cc1F | 0.5 (≈ 0.969 µM) | 2 (≈ 3.88 µM) | 0.5 (≈ 0.969 µM) | > 64 | 8 (≈ 15.5 µM) | > 64 | > 64 |  |  |  |  |  | 
8 | C[C@@H](n1ccc2ccccc2c1=O)[C@](O)(Cn1cncn1)c1ccc(F)cc1F | < 0.008 | 0.016 (≈ 0.0404 µM) | 0.016 (≈ 0.0404 µM) | 0.125 (≈ 0.315 µM) | 0.016 (≈ 0.0404 µM) | 0.016 (≈ 0.0404 µM) | 0.5 (≈ 1.26 µM) |  |  |  |  |  | 
9 | C[C@@H](n1ccc2cc(C(F)(F)F)ccc2c1=O)[C@](O)(Cn1cncn1)c1ccc(F)cc1F | < 0.008 | < 0.008 | < 0.008 | 0.063 (≈ 0.136 µM) | < 0.008 | < 0.008 | 0.5 (≈ 1.08 µM) |  |  |  |  |  | 
10 | C[C@@H](n1ncc2cc(Cl)ccc2c1=O)[C@](O)(Cn1cncn1)c1cc(F)ccc1F | < 0.008 | < 0.008 | < 0.008 | 0.125 (≈ 0.289 µM) | < 0.008 | < 0.008 | 0.25 (≈ 0.579 µM) |  |  |  |  |  | 
11 | C[C@@H](n1ccc2cc(-c3ccccc3)ccc2c1=O)[C@](O)(Cn1cncn1)c1ccc(F)cc1F | < 0.008 | 0.063 (≈ 0.133 µM) | 0.016 (≈ 0.0339 µM) | 1 (≈ 2.12 µM) | 0.063 (≈ 0.133 µM) | 0.5 (≈ 1.06 µM) | 8 (≈ 16.9 µM) |  |  |  |  |  | 
12 | C[C@@H](n1cnc2cc(C(F)(F)F)ccc2c1=O)[C@](O)(Cn1cnnn1)c1ccc(F)cc1F | < 0.008 | 0.125 (≈ 0.268 µM) | < 0.008 | > 4 | < 0.008 | 4 (≈ 8.58 µM) | 16 (≈ 34.3 µM) |  |  |  |  |  | 
13 | C[C@@H](n1cnc2cc(F)ccc2c1=O)[C@](O)(Cn1cnnn1)c1ccc(F)cc1F | < 0.008 | 0.5 (≈ 1.2 µM) | 0.25 (≈ 0.6 µM) | > 4 | 0.25 (≈ 0.6 µM) | 4 (≈ 9.61 µM) | 16 (≈ 38.4 µM) |  |  |  |  |  | 
14 | C[C@@H](n1ncc2cn(-c3ccc(C(F)(F)F)cc3)nc2c1=O)[C@](O)(Cn1cncn1)c1ccc(F)cc1F | 0.25 (≈ 0.47 µM) | 0.5 (≈ 0.941 µM) | 0.5 (≈ 0.941 µM) | 16 (≈ 30.1 µM) | 0.5 (≈ 0.941 µM) | 1 (≈ 1.88 µM) | > 64 |  |  |  |  |  | 
15 | C[C@@H](n1ccc2cc(Cl)ccc2c1=O)[C@](O)(Cn1cncn1)c1cc(F)ccc1F | < 0.008 | < 0.008 | < 0.008 | 0.063 (≈ 0.146 µM) | < 0.008 | < 0.008 | 0.25 (≈ 0.58 µM) |  |  |  |  |  | 

Reference: ChEMBL document CHEMBL5543144, “Discovery of a Novel Potent Tetrazole Antifungal Candidate with High Selectivity and Broad Spectrum” (J Med Chem, 2024)
